According to ChEMBL document CHEMBL1130867, “Ascorbic acid-based inhibitors of alpha-amylases” (Bioorg Med Chem Lett, 1998):

Tests used:
Conditions in all cases: concentration not given here
[1] = target: T1, Pancreatic alpha-amylase (Homo sapiens) (UniProt P04746); assay: Inhibition of pancreatic alpha-amylase; set-up: concentration or dose not given beside the values
T1 sequence (whole entry): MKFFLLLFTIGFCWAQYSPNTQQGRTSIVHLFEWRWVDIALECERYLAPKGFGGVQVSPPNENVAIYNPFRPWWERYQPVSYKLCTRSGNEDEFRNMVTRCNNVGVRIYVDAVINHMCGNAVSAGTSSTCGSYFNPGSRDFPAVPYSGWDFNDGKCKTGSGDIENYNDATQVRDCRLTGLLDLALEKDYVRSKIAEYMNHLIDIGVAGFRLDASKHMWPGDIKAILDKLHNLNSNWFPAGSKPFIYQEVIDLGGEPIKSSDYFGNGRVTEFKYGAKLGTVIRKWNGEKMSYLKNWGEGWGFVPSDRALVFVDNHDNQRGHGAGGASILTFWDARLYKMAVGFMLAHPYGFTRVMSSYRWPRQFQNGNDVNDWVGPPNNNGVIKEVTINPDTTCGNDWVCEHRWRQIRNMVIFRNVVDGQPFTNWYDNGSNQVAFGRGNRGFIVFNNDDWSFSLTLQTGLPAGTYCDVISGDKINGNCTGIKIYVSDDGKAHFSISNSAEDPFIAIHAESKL

[2] = target: T2, Alpha-amylase 1A (Homo sapiens) (UniProt P0DUB6); assay: Inhibition of salivary alpha-amylase
T2 sequence (whole entry): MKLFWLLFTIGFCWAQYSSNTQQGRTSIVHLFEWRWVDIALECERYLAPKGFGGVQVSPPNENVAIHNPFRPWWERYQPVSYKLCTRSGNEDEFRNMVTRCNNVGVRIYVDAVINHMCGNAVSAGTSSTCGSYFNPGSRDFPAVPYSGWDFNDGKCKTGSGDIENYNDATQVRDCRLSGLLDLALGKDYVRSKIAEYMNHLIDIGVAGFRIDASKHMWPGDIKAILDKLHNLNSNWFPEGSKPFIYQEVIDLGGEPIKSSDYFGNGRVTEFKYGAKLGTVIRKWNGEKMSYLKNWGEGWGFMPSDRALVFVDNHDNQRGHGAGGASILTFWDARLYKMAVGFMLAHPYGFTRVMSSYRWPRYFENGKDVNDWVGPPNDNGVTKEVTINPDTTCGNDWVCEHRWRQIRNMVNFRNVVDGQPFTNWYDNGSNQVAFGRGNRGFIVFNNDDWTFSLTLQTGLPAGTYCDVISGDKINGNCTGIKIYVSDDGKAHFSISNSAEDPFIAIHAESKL

[3] = test system: Alpha-amylase (Hordeum vulgare); assay: Inhibition of malt alpha-amylase; set-up: concentration or dose not given beside the values
[4] = test system: Fungi; assay: Inhibition of fungal alpha-amylase; set-up: concentration or dose not given beside the values
[5] = test system: Bacteria; assay: Inhibition of Alpha-amylase; set-up: concentration or dose not given beside the values

Structure (SMILES) | inhibition [1] | inhibition [2] | inhibition [3] | inhibition [4] | inhibition [5]
CC1(C)OCC(C2OC(=O)C(O)=C2O)O1 (stereo in doubt; 2a) | 99% | 88% | 90% | 94% | 98%
CCCCCCCCCCCCCCCC(=O)OC[C@H](O)[C@H]1OC(=O)C(O)=C1O | 88% | 69% | – | 70% | 84%
COC1=C(O)C(=O)OC1C(O)CO (centres undefined) | – | – | 9% | – | –
COC1=C(OC)C(C(O)COC(C)=O)OC1=O (centres undefined) | – | – | 3% | – | –
CC(=O)OCC(OC(C)=O)C1OC(O)=C(O)C1=O (centres undefined) | 99% | – | 89% | 91% | 92%
COC1=C(OC)C(C2COC(C)(C)O2)OC1=O (centres undefined) | – | – | 2% | – | –
COC1=C(O)C(=O)OC1C1COC(C)(C)O1 (centres undefined) | 0% | – | 29% | 17% | 8%
CCCC(=O)OCC(O)C1OC(=O)C(OC)=C1OC (centres undefined) | – | – | 10% | – | –
COC1=C(OC)C(C(O)CO)OC1=O (centres undefined) | – | – | 4% | – | –
COC1=C(OC(C)=O)C(C2COC(C)(C)O2)OC1=O (centres undefined) | – | – | 9% | – | –
CC1(C)OCC(C2OC(=O)C(O)=C2O)O1 (stereo in doubt; 2b) | 99% | 98% | 93% | 91% | 93%
CCC(=O)OCC(O)C1OC(=O)C(OC)=C1OC (centres undefined) | – | – | 7% | – | –
COC1=C(OC)C(C(COC(C)=O)OC(C)=O)OC1=O (centres undefined) | – | – | 0% | – | –
O=C1O[C@H]([C@@H](O)CO)C(O)=C1O (stereo in doubt; 1b) | 100% | 100% | – | 98% | 99%
